The source of these data is BindingDB's records for doi:10.1021/jm0506625 (Washington University, 2005).

In one assay the target is T1, Caspase-3 (Homo sapiens, UniProt P42574).
T1 sequence (P42574 whole entry): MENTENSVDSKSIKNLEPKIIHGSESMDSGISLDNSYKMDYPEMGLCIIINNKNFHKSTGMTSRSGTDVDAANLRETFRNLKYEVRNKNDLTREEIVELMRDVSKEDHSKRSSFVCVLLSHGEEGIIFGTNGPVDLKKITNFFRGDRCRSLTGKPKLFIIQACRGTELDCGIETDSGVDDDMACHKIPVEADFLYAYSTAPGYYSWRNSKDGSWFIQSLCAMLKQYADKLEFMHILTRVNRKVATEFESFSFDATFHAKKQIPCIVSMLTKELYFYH
Kind of assay: Caspase Inhibition Assay. Here is the method:
(§1) The substrate peptides terminating in AMC are processed by caspases with or without inhibitors. […] Compounds were tested in duplicate, and IC50 curves were calculated for all inhibitors. Final IC50s were the average of three independent experiments.

A further assay concerns the target Caspase-8 (Homo sapiens, UniProt Q14790). Kind of assay: Caspase Inhibition Assay. Here is the method:
as §1

Where a SMILES comes first, the peptide text is derived from it. [ ]: non-standard residue; d: D form. ξ: configuration not given here. Ile(3ξ) = CCC(C)[C@H](N)C(=O)O; Thr(3ξ) = CC(O)[C@H](N)C(=O)O

Chain of Caspase-8 (Q14790 217-374 limits assumed): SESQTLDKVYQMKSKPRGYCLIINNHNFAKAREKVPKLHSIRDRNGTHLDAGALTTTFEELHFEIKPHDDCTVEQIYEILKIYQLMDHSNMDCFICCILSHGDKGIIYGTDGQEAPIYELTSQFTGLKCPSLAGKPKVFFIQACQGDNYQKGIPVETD
Chain of Caspase-8 (Q14790 385-479 limits assumed): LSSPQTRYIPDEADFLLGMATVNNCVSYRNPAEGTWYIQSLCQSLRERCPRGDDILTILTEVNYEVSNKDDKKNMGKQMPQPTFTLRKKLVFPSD

Take `COc1ccc(CN2C(=O)C(=O)c3cc(S(=O)(=O)N4CCC[C@H]4COc4cccnc4)ccc32)cc1` [1-[(4-methoxyphenyl)methyl]-5-{[(2S)-2-[(pyridin-3-yloxy)methyl]pyrrolidine-1-]sulfonyl}-2,3-dihydro-1H-indole-2,3-dione]: on Caspase-3, affinity was put at a Ki of 4.4 nM. In the case of `CCC(C)[C@H](NC(C)=O)C(=O)N[C@@H](CCC(=O)O)C(=O)N[C@H](C(=O)N[C@H](C=O)CC(=O)O)C(C)O` (stereo partly drawn) [(4S)-4-{[(1S)-1-{[(2S)-1-carboxy-3-oxopropan-2-yl]carbamoyl}-2-hydroxypropyl]carbamoyl}-4-[(2S)-2-acetamido-3-methylpentanamido]butanoic acid] (Ac-[Ile(3ξ)]E[Thr(3ξ)]D-aldehyde), half-maximal inhibition against Caspase-8 (IC50) was put at 4.7 nM.
